Patent US20220183282A1, “Fatty Acid Derivatives For Improving The Effect Of Agrochemical Actives” (priority 2019, published 2022)
Like-named read-outs stand apart in the source and are kept apart here.

Test system: apple leaf cuticles
Details: for Mean penetration for Benzyladenine after time: Benzyladenine 0.1 g/L in spray liquid
Excerpt: Surfactants can affect the absorption of (active) ingredients through membranes such as skin, films or the plant cuticle. As a “finite-dose” application, it is known for the single administration or application of a solution, cream, gel etc. to a membrane that the absorption of active ingredient can be influenced by some additives such as surfactants even after wetting.
The principle of the method has been published and described in detail e.g. in WO-A-2005/194844 or WO2017211572 A1). The leaf cuticles were enzymatically isolated in the manner described in the literature from apple leaves of orchard trees in a commercial stone fruit growing facility near Frankfurt am Main in 2017. The stomata-free cuticles were first dried under air and then installed into stainless steel diffusion cells. After application to the original upper side of the leaf and evaporation of the test liquid, i.e. of the spray liquids of the active ingredients with or without the inventive substances or comparative compositions, the diffusion cells were transferred into thermostated blocks and charged with aqueous liquid. The water used to make up the aqueous test liquids was local tap water (of known composition). At regular intervals, aliquot samples were taken and the proportion of active ingredient penetrated was determined by HPLC or alternatively by radio-chemical method where radio-labelled active ingredient was used as tracer to determine the concentration. During the experiment, the temperature in the system (block, diffusion cells, liquids, etc.) and the air humidity above the spray deposit on the cuticle were controlled. In the experiment, relative air humidity was constant throughout at 56% relative air humidity (air over supersaturated calcium nitrate) at a constant 10° C. or 25° C. The analytical determination by means of HPLC (1290 Infinity, Agilent) was effected thereafter with a Kinetex column 30×2, 1 mm, 2.6μ C18 100 A (Phenomenex), taking a 20 μL aliquot as injection volume at the specified times. In each case, the geometric mean values of the penetration for intact membranes at the mean measurement times are given.

Compound: CCCCCCCCC(=O)OCCOCCOCCOCCOCCOCCOC [A1, Pelargonic acid 6 EO ester methyl ether]
- Mean penetration for Benzyladenine after time (test substance 0.3 g/L, 1 day): 4.2%
- Mean penetration for Benzyladenine after time (test substance 0.3 g/L, 2 days): 4.5%
- Mean penetration for Benzyladenine after time (test substance 0.8 g/L, 1 day): 9.7%
- Mean penetration for Benzyladenine after time (test substance 0.8 g/L, 2 days): 10.6%
- Mean penetration for Benzyladenine after time (test substance 1.5 g/L, 1 day): 17.2%
- Mean penetration for Benzyladenine after time (test substance 1.5 g/L, 2 days): 17.9%
- Mean penetration for Benzyladenine after time (test substance 3.0 g/L, 1 day): 17.9%
- Mean penetration for Benzyladenine after time (test substance 3.0 g/L, 2 days): 18.6%
- uptake of the agrochemical active (Benzyladenine), in words (summary of Table 10): strongly increases the uptake
